Test results published in patent US20250388623A1, “PEPTIDE INHIBITOR AND USE THEREOF” (CHENGDU BRILLIANT INSPIRATION BIOTHERAPEUTICS CO., LTD, priority 2022, published 2025).
Bridge positions count the residues as written; N and C are the ends. Peptide text beside a SMILES is read from it.

What was measured:
[1] = molecular target: T1, binding of TSP-1 protein to CD36, a TSP-1 receptor protein (Homo sapiens, UniProt P07996); assay: ELISA: blocking of CD36 binding to TSP-1 protein; settings: for inhibition at 100 µM: 3 h, 100 μM polypeptide, 0.25 μg/mL Fc-tagged CD36, blocking of CD36 binding to TSP-1, read-out: Blocking rate (Mean, %); for IC50: concentrations 0-100 μM
T1 construct: purchased novoprotein (TSP-1); R&D Systems (Fc-tagged CD36) CU45 (TSP-1); 1955-CD-050 (CD36-Fc)
T1 sequence (P07996 19-1170): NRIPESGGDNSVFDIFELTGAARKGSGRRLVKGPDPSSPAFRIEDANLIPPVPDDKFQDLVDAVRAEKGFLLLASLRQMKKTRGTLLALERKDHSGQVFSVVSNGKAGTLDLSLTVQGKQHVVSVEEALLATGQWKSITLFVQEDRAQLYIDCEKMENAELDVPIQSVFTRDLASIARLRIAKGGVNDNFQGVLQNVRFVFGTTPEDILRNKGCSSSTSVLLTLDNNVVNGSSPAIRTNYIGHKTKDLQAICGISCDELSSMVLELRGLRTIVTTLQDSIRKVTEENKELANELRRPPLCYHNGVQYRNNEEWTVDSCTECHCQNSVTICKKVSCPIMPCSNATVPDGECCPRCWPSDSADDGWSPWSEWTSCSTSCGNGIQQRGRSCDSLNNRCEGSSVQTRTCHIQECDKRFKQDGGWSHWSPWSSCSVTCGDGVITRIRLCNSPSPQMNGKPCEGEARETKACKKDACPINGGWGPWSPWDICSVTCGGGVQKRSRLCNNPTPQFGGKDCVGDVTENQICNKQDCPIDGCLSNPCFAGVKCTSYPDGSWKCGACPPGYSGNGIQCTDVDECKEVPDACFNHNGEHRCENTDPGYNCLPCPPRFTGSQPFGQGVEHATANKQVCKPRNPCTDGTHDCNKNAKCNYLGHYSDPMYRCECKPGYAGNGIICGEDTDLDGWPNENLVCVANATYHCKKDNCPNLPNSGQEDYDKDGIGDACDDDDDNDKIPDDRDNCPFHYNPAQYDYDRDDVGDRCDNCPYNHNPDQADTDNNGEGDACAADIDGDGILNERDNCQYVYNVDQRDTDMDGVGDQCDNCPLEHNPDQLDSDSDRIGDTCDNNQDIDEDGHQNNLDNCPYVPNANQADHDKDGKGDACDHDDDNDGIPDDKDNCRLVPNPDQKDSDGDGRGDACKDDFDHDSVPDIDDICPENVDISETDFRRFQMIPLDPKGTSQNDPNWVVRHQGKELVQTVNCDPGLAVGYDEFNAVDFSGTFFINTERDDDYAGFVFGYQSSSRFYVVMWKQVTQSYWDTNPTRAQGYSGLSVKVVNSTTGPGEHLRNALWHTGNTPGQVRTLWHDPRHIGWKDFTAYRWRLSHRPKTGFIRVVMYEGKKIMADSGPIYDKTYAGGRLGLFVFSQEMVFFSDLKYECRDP
Method in brief: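 Plate-bound TSP-1 (2 μg/mL coat) incubated 3 h at 37 °C with Fc-tagged CD36 (0.25 μg/mL final) ± polypeptide (100 μM final single-point; 0.5–100 μM for IC50); bound CD36 detected with FITC anti-Fc antibody fluorescence. Blocking rate = (control − treated)/control × 100%; IC50 from concentration dependence.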

[2] = tested on: rat fibrotic disease model (bleomycin); assay: Lung index and fibrotic pathology (Masson's trichrome) in bleomycin rat fibrosis model; type: in vivo; settings: for Lung index Mean(‰): 2 mg/kg intratracheal twice weekly x4 from Day 1, Day 15, BLM model 8.63, negative control 4.62; for Fibrosis score Mean: 2 mg/kg intratracheal twice weekly x4 from Day 1, Day 15, Masson's trichrome, BLM model 3.34, negative control 0.96
Experimental: This Example was to assess the inhibitory effect of polypeptide administration on the expression levels of pro-fibrotic factors at pathological fibrotic sites. 6- to 8-week-old male SD rats weighing 200 to 220 g were used as subjects for the study. The experimental animals were randomized into groups, 6 animals in each group. On the day of modeling (Day 1), a single dose of 1.8 USP/kg of bleomycin solution was administered via the tracheal route to the BLM model group and each peptide-treated group to induce the model. The negative control group was given an equal volume of saline. Starting on Day 1, each peptide-treated group received intratracheal administration of the peptide at a dosage of 2 mg/kg, with a dosing frequency of twice a week, for a total of four administrations. The BLM model group and the negative control group received an equal volume of solvent (saline) as a control, with the volume being 100 μL. The procedure followed that described in Example 4.
On Day 15, the lung tissues were dissected, washed with saline to remove blood stains, dried with gauze, and weighed. The lung index was calculated (lung index=(wet lung weight/body weight)×1000. This index reflects the general condition of the lung tissue, including edema, inflammation, and fibrosis). Histopathological analysis was performed on the dissected lung tissues. The lung tissues were perfused with 5 mL of paraformaldehyde via the trachea and placed in 40 mL of paraformaldehyde. A small amount of gauze was added to ensure the lung tissues were completely immersed in the fixative solution. The tissues were fixed for more than 24 hours. One lobe of the left lung and four lobes of the right lung were trimmed to the maximum coronal plane, and the left and right lungs were individually placed in two embedding cassettes, and then paraffin-embedded to make 3 μm sections. Masson's trichrome staining was performed as described in Example 7. After digital scanning, for each lung lobe, ≤10 visual fields were captured under a 10× magnification. The severity score of fibrosis was assessed to evaluate the inhibitory effects of the polypeptides on fibrotic deposition at pathological fibrotic sites.

P-Smad2/3 = P-Smad2/3 content in lung tissue, BLM mouse fibrosis model; type: in vivo; settings: single intratracheal dose 3 mg/kg on Day 7, lung 24 h later, BLM model group = 100.00
Method in brief: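 Male C57/6J mice (6–8 weeks, 18–20 g, n=8/group) received intratracheal bleomycin 0.7 USP/kg on Day 1, then a single intratracheal 3 mg/kg peptide dose or saline on Day 7. Values are expressed as the treated/model content ratio.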

| Compound | inhibition at 100 µM [1] [%] | IC50 [1] [µM] | Lung index Mean(‰) [2] | Fibrosis score Mean [2] | P-Smad2/3 content in lung tissue, ratio to model group, Mean(%) (P-Smad2/3) | P-Smad2/3 content in lung tissue, ratio to model group, Mean(%) (P-Smad2/3; 3 mg/kg) |
| --- | --- | --- | --- | --- | --- | --- |
| Ac-TQDAEDNTASH-NH2 [SEQ ID NO: 33, Ac-Thr-Gln-Asp-Ala-Glu-Asp-Asn-Thr-Ala-Ser-His-NH2] | 21.4 | – | 7.37 ‰ | 2.63 | 71.09 | – |
| Ac-TQDAEDPTAS-NH2 [SEQ ID NO: 25, Ac-Thr-Gln-Asp-Ala-Glu-Asp-Pro-Thr-Ala-Ser-NH2] | 33 | – | 7.42 ‰ | 2.62 | 65.07 | – |
| C[C@@H]1NC(=O)[C@H]([C@@H](C)O)NC(=O)[C@H](CC(N)=O)NC(=O)[C@H](CC(=O)O)NC(=O)[C@H](CCC(=O)O)NC(=O)[C@@H]2CCCN2C(=O)[C@H](CC(=O)O)NC(=O)[C@H](CCC(N)=O)NC(=O)[C@H]([C@@H](C)O)NC(=O)[C@H](CO)NC1=O [SEQ ID NO: 46, cyclo[Thr-Gln-Asp-Pro-Glu-Asp-Asn-Thr-Ala-Ser]] (cyclo(ASTQDPEDNT)) | 56.1 | – | – | – | 74.60 | – |
| Ac-TQDAEDN-NH2 [SEQ ID NO: 06, Ac-Thr-Gln-Asp-Ala-Glu-Asp-Asn-NH2] | 17.7 | – | 7.17 ‰ | 2.66 | 54.89 | – |
| CC(=O)N[C@H](C(=O)N[C@H]1CSSC[C@@H](C(=O)O)NC(=O)[C@H](CC(N)=O)NC(=O)[C@H](CC(=O)O)NC(=O)[C@H](CCC(=O)O)NC(=O)[C@H](C)NC(=O)[C@H](CC(=O)O)NC1=O)[C@@H](C)O [SEQ ID NO: 43, Ac-Thr-cyclo[Cys-Asp-Ala-Glu-Asp-Asn-Cys]] (Ac-TCDAEDNC-OH; disulfide 2-8) | 52 | 3.62 | 7.11 ‰ | 2.72 | 49.30 | – |

Second part, led by results:

| inhibition at 100 µM [1] [%] | IC50 [1] [µM] | Compound | Lung index Mean(‰) [2] | Fibrosis score Mean [2] | P-Smad2/3 content in lung tissue, ratio to model group, Mean(%) (P-Smad2/3) | P-Smad2/3 content in lung tissue, ratio to model group, Mean(%) (P-Smad2/3; 3 mg/kg) |
| --- | --- | --- | --- | --- | --- | --- |
| 52.9 | 6.71 | CC(=O)N[C@H](C(=O)N[C@H]1CSSC[C@@H](C(N)=O)NC(=O)[C@H](CC(N)=O)NC(=O)[C@H](CC(=O)O)NC(=O)[C@H](CCC(=O)O)NC(=O)[C@H](C)NC(=O)[C@H](CC(=O)O)NC1=O)[C@@H](C)O [SEQ ID NO: 44, Ac-Thr-cyclo[Cys-Asp-Ala-Glu-Asp-Asn-Cys]-NH2] (Ac-TCDAEDNC-NH2; disulfide 2-8) | – | – | 79.93 | – |
| 37.5 | – | C[C@@H]1NC(=O)[C@H](CC(=O)O)NC(=O)[C@H](CCC(N)=O)NC(=O)[C@H]([C@@H](C)O)NC(=O)[C@H](CC(N)=O)NC(=O)[C@H](CC(=O)O)NC(=O)[C@H](CCC(=O)O)NC1=O [SEQ ID NO: 40, cyclo[Thr-Gln-Asp-Ala-Glu-Asp-Asn]] (cyclo(AEDNTQD)) | – | – | – | 83.20 |
| 53.8 | – | Ac-TQDPEDNTAS-NH2 [SEQ ID NO: 26, Ac-Thr-Gln-Asp-Pro-Glu-Asp-Asn-Thr-Ala-Ser-NH2] | 7.17 ‰ | 2.43 | 76.78 | – |
| 40.9 | – | Ac-TQDAEDPTA-NH2 [SEQ ID NO: 22, Ac-Thr-Gln-Asp-Ala-Glu-Asp-Pro-Thr-Ala-NH2] | 7.39 ‰ | 2.70 | 55.32 | – |
